For 17 compounds, IC50 and EC50 results are on record in patent US20230340011A1 (Asteroid Therapeutics, priority 2022, published 2023).

In assay [1] the target is SREBP-2 (Homo sapiens (Human), UniProt Q12772). The assay can be described thus: In vitro assay SREBP-2: PathHunter U2OS SREBP-2 Nuclear Translocation Cell Line, U18666A-stimulated. The settings on record: PathHunter U2OS SREBP-2 nuclear translocation cells, U18666A 10 μM, overnight (16 hours). It is filed as cell-based.
In assay [2] the target is LXRβ (Homo sapiens (Human), UniProt P55055). The assay can be described thus: In vitro assay LXRβ: PathHunter NHR CHO cells, LXRβ / Steroid Receptor Co-activator Peptide enzyme fragment complementation. The following applies: PathHunter NHR CHO cells, full-length human LXRβ and SRCP, chemiluminescent signal; read-out: LXRβ PPI. The class given is cell-based. Summed up: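 Enzyme fragment complementation read-out: CHO cells stably expressing ProLink-tagged full-length human LXRβ plus nuclear enzyme acceptor–SRCP fusion, seeded and held overnight at 37° C. Medium with charcoal-dextran filtered serum; final vehicle 1%. Chemiluminescence measured after signal generation.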

Where only a bound is given, the exact number is not on record here.

Chain of LXRβ (P55055 whole entry, the tested form may be a part): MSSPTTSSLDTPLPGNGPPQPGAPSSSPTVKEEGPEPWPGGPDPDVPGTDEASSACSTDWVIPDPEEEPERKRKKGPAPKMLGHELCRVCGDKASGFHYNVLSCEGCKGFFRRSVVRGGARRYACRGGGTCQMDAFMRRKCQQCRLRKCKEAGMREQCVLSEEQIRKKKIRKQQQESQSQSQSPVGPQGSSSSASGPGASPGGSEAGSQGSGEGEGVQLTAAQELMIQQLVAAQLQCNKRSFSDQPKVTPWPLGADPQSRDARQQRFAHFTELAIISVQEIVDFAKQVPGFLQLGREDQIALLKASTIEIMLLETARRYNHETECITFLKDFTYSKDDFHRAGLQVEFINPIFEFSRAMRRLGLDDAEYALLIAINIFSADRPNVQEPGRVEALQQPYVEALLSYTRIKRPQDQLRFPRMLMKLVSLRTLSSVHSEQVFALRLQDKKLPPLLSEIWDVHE

One may read the IC50 as the concentration at which inhibition is half-maximal. A low value points to greater potency in that assay. The compound `C[C@H](CCC(=O)N1CCN(S(=O)(=O)N(C)C)CC1)[C@H]1CC[C@H]2[C@@H]3CC=C4C[C@@H](O)CC[C@]4(C)[C@H]3CC[C@]12C` [Example 358, 4-((R)-4-((3S,8S,9S,10R,13R,14S,17R)-3-hydroxy-10,13-dimethyl-2,3,4,7,8,9,10,11,12,13,14,15,16,17-tetradecahydro-1H-cyclopenta[a]phenanthren-17-yl)pentanoyl)-N,N-dimethylpiperazine-1-sulfonamide] had an IC50 in assay [1] below 0.25 µM. In assay [2], the EC50 was above 10 µM.

Regarding `COc1cccc(N2CCN(C(=O)CC[C@@H](C)[C@H]3CC[C@H]4[C@@H]5CC=C6C[C@@H](O)CC[C@]6(C)[C@H]5CC[C@]34C)CC2)n1` [Example 659, (R)-4-((3S,8S,9S,10R,13R,14S,17R)-3-hydroxy-10,13-dimethyl-2,3,4,7,8,9,10,11,12,13,14,15,16,17-tetradecahydro-1H-cyclopenta[a]phenanthren-17-yl)-1-(4-(6-methoxypyridin-2-yl)piperazin-1-yl)pentan-1-one], the IC50 in assay [1] was below 0.25 µM. The EC50 in assay [2] was above 10 µM.

`COC(=O)N1CCSC12CN(C(=O)CC[C@@H](C)[C@H]1CC[C@H]3[C@@H]4CC=C5C[C@@H](O)CC[C@]5(C)[C@H]4CC[C@]13C)C2` [Example 553, Methyl 2-((R)-4-((3S,8S,9S,10R,13R,14S,17R)-3-hydroxy-10,13-dimethyl-2,3,4,7,8,9,10,11,12,13,14,15,16,17-tetradecahydro-1H-cyclopenta[a]phenanthren-17-yl)pentanoyl)-5-thia-2,8-diazaspiro[3.4]octane-δ-carboxylate]: the IC50 in assay [1] was 0.25 to 1 µM. In addition, in assay [2], the EC50 is above 10 µM.

In assay [1], `COc1ccnc(CC[C@@H](C)[C@H]2CC[C@H]3[C@@H]4CC=C5C[C@@H](O)CC[C@]5(C)[C@H]4CC[C@]23C)c1` [Example 602, (3S,8S,9S,10R,13R,14S,17R)-17-((R)-4-(4-methoxypyridin-2-yl)butan-2-yl)-10,13-dim ethyl-2,3,4,7,8,9,10,11,12,13,14,15,16,17-tetradecahydro-1H-cyclopenta[a]phenanthren-3-ol] yielded an IC50 below 0.25 µM. Further, the EC50 in assay [2] is 0.25 to 1 µM.

As for `C[C@H](Oc1ccncc1)[C@H]1CC[C@H]2[C@@H]3CC=C4C[C@@H](O)CC[C@]4(C)[C@H]3CC[C@]12C` [Example 379, (1S,3aS,3bS,7S,9aR,9bS,11aS)-9a,11a-dimethyl-1-[(1S)-1-(pyridin-4-yloxy)ethyl]-1H,2H,3H,3aH,3bH,4H,6H,7H,8H,9H,9aH,9bH,10H,11H,11aH-cyclopenta[a]phenanthren-7-ol], the IC50 in assay [1] is 0.25 to 1 µM. Moreover, in assay [2], the EC50 was above 10 µM.

The compound `C[C@H](CCC(=O)N1CCN(C(=O)N(C)C)CC1)[C@H]1CC[C@H]2[C@@H]3CC=C4C[C@@H](O)CC[C@]4(C)[C@H]3CC[C@]12C` [Example 339, 4-[(4R)-4-[(1R,3aS,3bS,7S,9aR,9bS,11aR)-7-hydroxy-9a,11a-dimethyl-1H,2H,3H,3aH,3bH,4H,6H,7H,8H,9H,9aH,9bH,10H,11H,11aH-cyclopenta[a]phenanthren-1-yl]pentanoyl]-N,N-dimethylpiperazine-1-carboxamide] gave an IC50 in assay [1] below 0.25 µM. For the same compound, in assay [2], the EC50 was above 10 µM.

`C[C@H](CCC(=O)N1CCN(C(=O)c2cn(C)nn2)[C@@H](C)C1)[C@H]1CC[C@H]2[C@@H]3CC=C4C[C@@H](O)CC[C@]4(C)[C@H]3CC[C@]12C` [Example 574, (R)-4-((3S,8S,9S,10R,13R,14S,17R)-3-hydroxy-10,13-dimethyl-2,3,4,7,8,9,10,11,12,13,14,15,16,17-tetradecahydro-1H-cyclopenta[a]phenanthren-17-yl)-1-((S)-3-methyl-4-(1-methyl-1H-1,2,3-triazole-4-carbonyl)piperazin-1-yl)pentan-1-one] gave an IC50 in assay [1] below 0.25 µM. For the same compound, the EC50 in assay [2] is above 10 µM.

In the case of `Cc1nnc(N2CCN(C(=O)CC[C@@H](C)[C@H]3CC[C@H]4[C@@H]5CC=C6C[C@@H](O)CC[C@]6(C)[C@H]5CC[C@]34C)C[C@@H]2C)o1` [Example 634, (4R)-4-[(1R,3aS,3bS,7S,9aR,9bS,11aR)-7-hydroxy-9a,11a-dimethyl-1H,2H,3H,3aH,3bH,4H,6H,7H,8H,9H,9aH,9bH,10H,11H,11aH-cyclopenta[a]phenanthren-1-yl]-1-[(3S)-3-methyl-4-(5-methyl-1,3,4-oxadiazol-2-yl)piperazin-1-yl]pentan-1-one], the IC50 in assay [1] was below 0.25 µM. Further, the EC50 in assay [2] is above 10 µM.

Take `CCn1c(CC[C@@H](C)[C@H]2CC[C@H]3[C@@H]4CC=C5C[C@@H](O)CC[C@]5(C)[C@H]4CC[C@]23C)n[nH]c1=S` [Example 353, 4-ethyl-5-((R)-3-((3S,8S,9S,10R,13R,14S,17R)-3-hydroxy-10,13-dimethyl-2,3,4,7,8,9,10,11,12,13,14,15,16,17-tetradecahydro-1H-cyclopenta[a]phenanthren-17-yl)butyl)-2,4-dihydro-3H-1,2,4-triazole-3-thione]: the IC50 in assay [1] is below 0.25 µM. Moreover, in assay [2], the EC50 was above 10 µM.

Turning to `CCN(C)C(=O)N1CCN(C(=O)CC[C@@H](C)[C@H]2CC[C@H]3[C@@H]4CC=C5C[C@@H](O)CC[C@]5(C)[C@H]4CC[C@]23C)CC1` [Example 213, N-ethyl-4-((R)-4-((3S,8S,9S,10R,13R,14S,17R)-3-hydroxy-10,13-dimethyl-2,3,4,7,8,9,10,11,12,13,14,15,16,17-tetradecahydro-1H-cyclopenta[a]phenanthren-17-yl)pentanoyl)-N-methylpiperazine-1-carboxamide], in assay [1], the 50% inhibitory concentration (IC50) was below 0.25 µM. In addition, the EC50 in assay [2] was above 10 µM.

In assay [1], `COCCN(C)C(=O)OC[C@@H](C)[C@H]1CC[C@H]2[C@@H]3CC=C4C[C@@H](O)CC[C@]4(C)[C@H]3CC[C@]12C` [Example 349, (S)-2-((3S,8S,9S,10R,13S,14S,17R)-3-hydroxy-10,13-dimethyl-2,3,4,7,8,9,10,11,12,13,14,15,16,17-tetradecahydro-1H-cyclopenta[a]phenanthren-17-yl)propyl (2-methoxyethyl)(methyl)carbamate] displayed an IC50 below 0.25 µM. In assay [2], the EC50 was above 10 µM.

`C[C@H](CCC(=O)N1CCN(c2cnccn2)CC1)[C@H]1CC[C@H]2[C@@H]3CC=C4C[C@@H](O)CC[C@]4(C)[C@H]3CC[C@]12C` [Example 304, (R)-4-((3S,8S,9S,10R,13R,14S,17R)-3-hydroxy-10,13-dimethyl-2,3,4,7,8,9,10,11,12,13,14,15,16,17-tetradecahydro-1H-cyclopenta[a]phenanthren-17-yl)-1-(4-(pyrazin-2-yl)piperazin-1-yl)pentan-1-one] came in with an IC50 in assay [1] below 0.25 µM. Also, the EC50 in assay [2] was above 10 µM.

Compound `C[C@H](CCc1ccccn1)[C@H]1CC[C@H]2[C@@H]3CC=C4C[C@@](C)(O)CC[C@]4(C)[C@H]3CC[C@]12C` [Example 369, (3S,8S,9S,10R,13R,14S,17R)-3,10,13-trimethyl-17-((R)-4-(pyridin-2-yl)butan-2-yl)-2,3,4,7,8,9,10,11,12,13,14,15,16,17-tetradecahydro-1H-cyclopenta[a]phenanthren-3-ol] showed an IC50 in assay [1] of 0.25 to 1 µM. In addition, the EC50 in assay [2] lay within 1 to 10 µM.

Consider `C[C@H](CCC(=O)N1CCC[C@@H]1C)[C@H]1CC[C@H]2[C@@H]3CC=C4C[C@@H](O)CC[C@]4(C)[C@H]3CC[C@]12C` [Example 112, (R)-4-((3S,8S,9S,10R,13R,14S,17R)-3-hydroxy-10,13-dimethyl-2,3,4,7,8,9,10,11,12,13,14,15,16,17-tetradecahydro-1H-cyclopenta[a]phenanthren-17-yl)-1-((S)-2-methylpyrrolidin-1-yl)pentan-1-one], for which the IC50 in assay [1] was below 0.25 µM. Also, the EC50 in assay [2] lay in the range of 0.25 to 1 µM.

`C[C@H](CCC(=O)N1CCN(C(=O)c2cnn(C)c2)CC1)[C@H]1CC[C@H]2[C@@H]3CC=C4C[C@@H](O)CC[C@]4(C)[C@H]3CC[C@]12C` [Example 309, (4R)-4-[(1R,3aS,3bS,7S,9aR,9bS,11aR)-7-hydroxy-9a,11a-dimethyl-1H,2H,3H,3aH,3bH,4H,6H,7H,8H,9H,9aH,9bH,10H,11H,11aH-cyclopenta[a]phenanthren-1-yl]-1-[4-(1-methyl-1H-pyrazole-4-carbonyl)piperazin-1-yl]pentan-1-one] returned an IC50 in assay [1] below 0.25 µM. In addition, the EC50 in assay [2] was above 10 µM.

In turn, `C[C@H](CCC(=O)N1CCN(c2cc(N(C)C)ncn2)CC1)[C@H]1CC[C@H]2[C@@H]3CC=C4C[C@@H](O)CC[C@]4(C)[C@H]3CC[C@]12C` [Example 663, (R)-1-(4-(6-(dimethylamino)pyrimidin-4-yl)piperazin-1-yl)-4-((3S,8S,9S,10R,13R,14S,17R)-3-hydroxy-10,13-dimethyl-2,3,4,7,8,9,10,11,12,13,14,15,16,17-tetradecahydro-1H-cyclopenta[a]phenanthren-17-yl)pentan-1-one] displayed an IC50 in assay [1] below 0.25 µM. The EC50 in assay [2] is above 10 µM.

In assay [1], `C=CCN1C[C@@H]2CCN(C(=O)CC[C@@H](C)[C@H]3CC[C@H]4[C@@H]5CC=C6C[C@@H](O)CC[C@]6(C)[C@H]5CC[C@]34C)[C@@H]2C1` [Example 139, (R)-1-((3aS,6aS)-5-allylhexahydropyrrolo[3,4-b]pyrrol-1(2H)-yl)-4-((3S,8S,9S,10R,13R,14S,17R)-3-hydroxy-10,13-dimethyl-2,3,4,7,8,9,10,11,12,13,14,15,16,17-tetradecahydro-1H-cyclopenta[a]phenanthren-17-yl)pentan-1-one] showed an IC50 of 0.25 to 1 µM. Also, the EC50 in assay [2] is above 10 µM.
